Results on 12 molecules are retold here after patent publication US5225607A, “Insecticidal ethers” (Imperial Chemical Industries PLC, priority 1985, dated 1993).

Common to all, as to assay type: in vivo
One assay relates to Tetranychus urticae. The assay is described as follows: Insecticidal/acaricidal test, Tetranychus urticae (spider mites - adult), contact. The settings on record: 72 h, 500 ppm, French bean leaf, 3 days, read-out: grading of mortality, TU. Summed up: (§1)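 Product applied at 500, 250 or 100 ppm as acetone solution diluted in water with 0.01% Lissapol NX wetting agent, onto pests and/or their host plant or food medium. Mortality or knockdown scored 1–3 days after treatment and graded A (80–100%; 70–100% for S. exigua), B (50–79%; 50–69% for S. exigua) or C (<50%).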

Another assay has as its system Myzus persicae. The experiment in a line: Insecticidal test, Myzus persicae (aphids), contact. To be noted: 72 h, 500 ppm, Chinese Cabbage leaf, 3 days, read-out: grading of mortality, MP. Summed up: as §1
For another assay, the system named is Nilaparvata lugens. The assay is described as follows: Insecticidal test, Nilaparvata lugens (brown planthopper), contact. The settings on record: 72 h, 500 ppm, Cabbage leaf, 3 days, read-out: grading of mortality, NL. Summed up: as §1
The subject of assay [1] is Musca domestica. The assay is described as follows: Knockdown test, Musca domestica (houseflies - adults). The settings on record: 500 ppm, cotton wool/sugar, 4 hours, read-out: grading of knockdown, MD/KD. In a few lines:
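Adult houseflies were exposed to the compound as aqueous acetone preparations with 0.01% Lissapol NX wetting agent, at 500, 250 or 100 ppm. Knockdown was graded A (80–100%), B (50–79%) or C (<50%).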

In assay [2] the test system is Musca domestica. The assay is described as follows: Insecticidal test, Musca domestica (houseflies - adults), contact. To be noted: 24 h, 500 ppm, cotton wool/sugar, 1 day, read-out: grading of mortality, MD. In a few lines: as §1
In the next assay the test system is Blattella germanica. The assay is described as follows: Insecticidal test, Blattella germanica (cockroach nymphs), residual. To be noted: 72 h, 500 ppm, plastic pot, 3 days, read-out: grading of mortality, BG. In a few lines:
as §1

For the next assay, the system named is Heliothis virescens. The assay is described as follows: whole plant or invertebrate. The settings on record: in Gossypium hirsutum, 72 h, read-out: grading of mortality, HV. In a few lines:
as §1

The subject of the next assay is Spodoptera exigua. The experiment in a line: Insecticidal test, Spodoptera exigua (lesser armyworm), residual. To be noted: 72 h, 500 ppm, cotton leaf, 3 days, read-out: grading of mortality, SE. On the procedure:
The activity of the Product was determined using a variety of insect and acarine pests. The Product was used in the form of liquid preparations containing 500, 250 or 100 parts per million (ppm) by weight of the Product. The preparations were made by dissolving the Product in acetone and diluting the solutions with water containing 0.01% by weight of a wetting agent sold under the trade name "LISSAPOL" NX until the liquid preparations contained the required concentratio of the Product. "Lissapol" is a Registered Trade Mark.
The test procedure adopted with regard to each pest was basically the same and comprised supporting a number of the pests on a medium which was usually a host plant or a foodstuff on which the pests feed, and treating either or both the pests and the medium with the preparations. The mortality of the pests was then assessed at periods usually varying from one to three days after the treatment.
The results of the tests are given in Table IV for each of the Products, at the rate in parts per million given in the second column as a grading of mortality designated as A, B or C wherein A indicates 80-100% mortality or knockdown (70-100% in the case of Spodoptera exigua), B indicates 50-79% mortality or knockdown (50-69% in the case of Spodoptera exigua) and C indicates less than 50% mortality or knockdown.
In Table IV the pest organism used is designated by a letter code and the pest species, the support medium or food, and the type and duration of test is given in Table III.

Another assay has as its system Diabrotica balteata. The experiment in a line: Insecticidal test, Diabrotica balteata (rootworm larvae), residual. The settings on record: 72 h, 500 ppm, filter paper/maize seed, 3 days, read-out: grading of mortality, DB. Summed up:
as §1

For orientation: mortality means the percentage killed.

In the case of `CCOc1c(F)cc(C(COCc2cccc(Oc3ccccc3)c2)C(F)(F)F)cc1F` (racemic) [Compound 163, (RS)-1,1,1-trifluoro-2-(3,5-difluoro-4-ethoxyphenyl)-3-(3-phenoxybenzyloxy)propane], the mortality at 500 ppm with Tetranychus urticae, with Myzus persicae, in the assay on Nilaparvata lugens, in the assay on Musca domestica [2], with Blattella germanica and in the assay on Heliothis virescens was 80 to 100% throughout. For the same molecule, the results for the mortality at 500 ppm in the assay with Spodoptera exigua and with Diabrotica balteata were 70 to 100% and 80 to 100%, respectively. Further, the pest or weed control at 500 ppm in the assay with Musca domestica [1] was 80 to 100%.

For the molecule `CCOc1c(F)cc(C(COCc2cccc(Oc3ccc(Cl)cc3)c2)C(F)(F)F)cc1F` (racemic) [Compound 165, (RS)-1,1,1-Trifluoro-2-(3,5-difluoro-4-ethoxyphenyl)-3 (3-(4-chlorophenoxy)benzyloxy)propane], the mortality at 500 ppm in the assay with Tetranychus urticae, with Myzus persicae, in the assay with Nilaparvata lugens, in the assay on Musca domestica [2], in the assay with Blattella germanica and in the assay with Heliothis virescens was 80 to 100% in each case. Further, the values for the mortality at 500 ppm with Spodoptera exigua and in the assay with Diabrotica balteata were 70 to 100% and 80 to 100%, respectively. The pest or weed control at 500 ppm in the assay on Musca domestica [1] lay within 80 to 100%.

For the molecule `CCOc1c(F)cc(C(COCc2ccc(F)c(Oc3ccccc3)c2)C(F)(F)F)cc1F` (racemic) [Compound 166, (RS)-1,1,1-Trifluoro-2-(3,5-difluoro-4-ethoxyphenyl)-3-(3-phenoxy-4-fluorobenzyloxy)propane], the mortality at 500 ppm lay within 80 to 100% in the assay with Tetranychus urticae; 50 to 79% in the assay with Myzus persicae; 80 to 100% in the assay on Nilaparvata lugens; 80 to 100% in the assay on Musca domestica [2]; 80 to 100% in the assay with Blattella germanica; 80 to 100% in the assay with Heliothis virescens. Moreover, the mortality at 500 ppm in the assay on Spodoptera exigua was in the range of 70 to 100%; in the assay on Diabrotica balteata it was 80 to 100%. Also, in the assay with Musca domestica [1], the pest or weed control at 500 ppm is 80 to 100%.

Regarding `CCOc1c(F)cc(C(O)(COCc2cccc(Oc3ccccc3)c2)C(F)(F)F)cc1F` (racemic) [Compound 176, (RS)-1,1,1-trifluoro-2-(3,5-difluoro-4-ethoxyphenyl)-3-(3-phenoxybenzyloxy)propan-2-ol], the mortality at 500 ppm was < 50% in the assay with Tetranychus urticae; < 50% in the assay on Myzus persicae; < 50% in the assay with Nilaparvata lugens; < 50% in the assay on Musca domestica [2]; < 50% in the assay on Blattella germanica; 50 to 79% with Heliothis virescens. The mortality at 500 ppm in the assay with Spodoptera exigua is 70 to 100%; in the assay on Diabrotica balteata, 80 to 100%. The pest or weed control at 500 ppm with Musca domestica [1] fell in the range of 80 to 100%.

Take `CCOc1ccc([C@H](CO[C@@H](C#N)c2cccc(Oc3ccccc3)c2)C(F)(F)F)cc1` (racemic) [Compound 252, (2RS)-1,1,1-trifluoro-2-(4-ethoxyphenyl)-3-[(RS)-α-cyano-3-phenoxybenzyloxy]propane]: the mortality at 500 ppm in the assay on Tetranychus urticae is < 50%; with Myzus persicae it was 80 to 100%; in the assay with Nilaparvata lugens, 80 to 100%; in the assay with Musca domestica [2], 80 to 100%; in the assay with Blattella germanica it was 50 to 79%; with Heliothis virescens, 80 to 100%. Moreover, the mortality at 500 ppm with Spodoptera exigua lay within 70 to 100%; in the assay with Diabrotica balteata, 80 to 100%. Moreover, in the assay on Musca domestica [1], the pest or weed control at 500 ppm is 80 to 100%.

Take `CCOc1ccc([C@H](CO[C@H](C)c2cccc(Oc3ccccc3)c2)C(F)(F)F)cc1` (racemic) [Compound 256, (2RS)-1,1,1-trifluoro-2-(4-ethoxyphenyl)-3-[(1RS)-1-(3-phenoxyphenyl)ethoxy]propane]: the mortality at 500 ppm is < 50% in the assay on Tetranychus urticae; 80 to 100% in the assay on Myzus persicae; 80 to 100% in the assay on Nilaparvata lugens; 80 to 100% in the assay with Musca domestica [2]; < 50% in the assay with Blattella germanica; 80 to 100% with Heliothis virescens. Besides, the mortality at 500 ppm in the assay with Spodoptera exigua and with Diabrotica balteata was < 50% each time. Besides, the pest or weed control at 500 ppm in the assay on Musca domestica [1] was 50 to 79%.

For the molecule `CCOc1ccc(C(COC(c2cccc(Oc3ccccc3)c2)C(F)(F)F)C(F)(F)F)cc1` (racemic) [Compound 264], the mortality at 500 ppm was 50 to 79% in the assay on Tetranychus urticae; < 50% in the assay on Myzus persicae; < 50% with Musca domestica [2]; < 50% in the assay on Blattella germanica; < 50% with Heliothis virescens; 70 to 100% in the assay with Spodoptera exigua. Also, in the assay on Diabrotica balteata, the mortality at 500 ppm was < 50%. Further, the pest or weed control at 500 ppm in the assay on Musca domestica [1] is < 50%.

Take `CCOc1ccc(C(COCc2ccc(F)c(Cc3ccccc3)c2)C(F)(F)F)cc1` (stereo not shown) [Compound 8]: the mortality at 500 ppm in the assay with Tetranychus urticae is < 50%; in the assay on Myzus persicae it was 80 to 100%; with Nilaparvata lugens it was 80 to 100%; in the assay with Musca domestica [2], 80 to 100%; in the assay on Blattella germanica it was 80 to 100%; in the assay with Heliothis virescens it was 80 to 100%. For the same molecule, the mortality at 500 ppm is 70 to 100% in the assay on Spodoptera exigua and 80 to 100% in the assay on Diabrotica balteata. In addition, the pest or weed control at 500 ppm in the assay on Musca domestica [1] lay within 80 to 100%.

For `Cc1ccc(C(COCc2cccc(Oc3ccccc3)c2)C(F)(F)F)cc1` (stereo not shown) [Compound 22, 1,1,1-Trifluoro-2-(4-methylphenyl)-3-(3-phenoxybenzyloxy)propane], the mortality at 500 ppm was < 50% with Tetranychus urticae; 80 to 100% in the assay on Nilaparvata lugens; 80 to 100% with Musca domestica [2]; 80 to 100% in the assay on Blattella germanica; 50 to 79% with Heliothis virescens; 70 to 100% in the assay on Spodoptera exigua. In the assay with Diabrotica balteata, the mortality at 500 ppm was in the range of 80 to 100%. Also, in the assay on Musca domestica [1], the pest or weed control at 500 ppm was 80 to 100%.

As to `Fc1ccc(COC=C(c2ccc3c(c2)CCC3)C(F)(F)F)cc1Oc1ccccc1` [Compound 459, 1,1,1-trifluoro-2-(5-indanyl)-3-(3-phenoxy-4-fluorobenzyloxy)prop-2-ene], the mortality at 500 ppm was 80 to 100% in the assay with Tetranychus urticae; < 50% in the assay on Myzus persicae; < 50% in the assay with Nilaparvata lugens; < 50% in the assay with Musca domestica [2]; < 50% with Blattella germanica; < 50% in the assay on Heliothis virescens. Moreover, the mortality at 500 ppm in the assay on Diabrotica balteata lay in the range of 80 to 100%. Moreover, in the assay with Musca domestica [1], the pest or weed control at 500 ppm lay in the range of 50 to 79%.

In the case of `CCCc1ccc(C(=COCc2ccc(F)c(Oc3ccccc3)c2)C(F)(F)F)cc1` [Compound 460, 1,1,1-trifluoro-2-(4-n-propylphenyl)-3-(3-phenoxy-4-fluorobenzyloxy)prop-2-ene], the mortality at 500 ppm with Tetranychus urticae was < 50%; with Myzus persicae it was < 50%; in the assay on Nilaparvata lugens, 50 to 79%; in the assay on Musca domestica [2], < 50%; in the assay on Blattella germanica, 80 to 100%; with Heliothis virescens, < 50%. The mortality at 500 ppm with Diabrotica balteata was 50 to 79%. Further, the pest or weed control at 500 ppm in the assay on Musca domestica [1] was < 50%.

On to `FC(F)(F)Oc1ccc(C(=COCc2cccc(Oc3ccccc3)c2)C(F)(F)F)cc1` [Compound 463, 1,1,1-trifluoro-2-(4-trifluoromethoxyphenyl)-3-(3-phenoxybenzyloxy)prop-2-ene], for which the mortality at 500 ppm with Tetranychus urticae was < 50%; in the assay on Myzus persicae, 80 to 100%; in the assay on Nilaparvata lugens it was < 50%; in the assay on Musca domestica [2] it was < 50%; in the assay on Blattella germanica it was 80 to 100%; with Heliothis virescens, 80 to 100%. In the assay on Diabrotica balteata, the mortality at 500 ppm is 80 to 100%. Moreover, the pest or weed control at 500 ppm with Musca domestica [1] is < 50%.
